Measured values: patent EP4603105A1, “PHARMACEUTICAL COMPOSITION CONTAINING CYCLIC COMPOUND HAVING SELECTIVE KRAS INHIBITORY EFFECT AGAINST HRAS AND NRAS” (CHUGAI SEIYAKU KABUSHIKI KAISHA, priority 2022, dated 2024)

Experiments:
[1] = biological target: GDP-bound NRAS wild-type protein (Homo sapiens, UniProt P01111); assay: Binding to NRAS by surface plasmon resonance (SPR), KD and KD ratio to KRAS
Procedure, shortened: (§1)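 GDP-loaded biotinylated Avi-tag RAS proteins (E. coli-expressed) captured on a Biotin CAPture chip at ~100–300 RU; single-cycle kinetics at 30°C, 100 µL/min, 75 s injections of rising compound concentrations. HBS pH 7.4 running buffer with 1 mM DTT, 10 mM MgCl2, 10 µM GDP, 4% DMSO. KD from 1:1 binding fit.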

[2] = test system: human lung cancer strain NCI-H441; format: cell-based
Procedure, shortened: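 Readout: […] after the ATP-based reagent. Compound: serial dilutions in dimethyl sulfoxide.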

[3] = biological target: GDP-bound KRAS wild-type protein (Homo sapiens, UniProt P01116); assay: Binding to KRAS by surface plasmon resonance (SPR), dissociation constant KD; details: Single Cycle Kinetics, 1:1 binding model
Procedure, shortened: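 Each cycle, GDP-bound biotin-Avi RAS was captured (~100–300 RU), compound concentrations were injected low to high for 75 s each at 100 µL/min, then the chip was regenerated. Buffer: HBS pH 7.4, 10 mM MgCl2, 10 µM GDP, 1 mM DTT, 4% DMSO; 30°C. KD from a 1:1 binding model.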

[4] = biological target: HRAS wild-type protein (Homo sapiens, UniProt P01112); assay: Binding to HRAS by surface plasmon resonance (SPR), KD and KD ratio to KRAS
Procedure, shortened: as §1

[5] = ratio of KD value for GDP-bound NRAS wild-type protein to KD value for KRAS (SPR)
[6] = ratio of KD value for HRAS wild-type protein to KD value for KRAS (SPR)
[7] = ratio of the KD value with respect to GDP-bound NRAS wild-type protein to the KD value with respect to KRAS
[8] = ratio of the KD value with respect to HRAS wild-type protein to the KD value with respect to KRAS

Sequence of GDP-bound KRAS wild-type protein (P01116 1-188 isoform P01116-2): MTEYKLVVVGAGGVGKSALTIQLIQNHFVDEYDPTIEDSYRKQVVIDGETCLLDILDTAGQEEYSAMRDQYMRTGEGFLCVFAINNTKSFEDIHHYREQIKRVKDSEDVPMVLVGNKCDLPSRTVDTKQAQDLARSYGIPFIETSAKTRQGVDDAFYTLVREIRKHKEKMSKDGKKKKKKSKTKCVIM
Sequence of GDP-bound NRAS wild-type protein (P01111 whole entry): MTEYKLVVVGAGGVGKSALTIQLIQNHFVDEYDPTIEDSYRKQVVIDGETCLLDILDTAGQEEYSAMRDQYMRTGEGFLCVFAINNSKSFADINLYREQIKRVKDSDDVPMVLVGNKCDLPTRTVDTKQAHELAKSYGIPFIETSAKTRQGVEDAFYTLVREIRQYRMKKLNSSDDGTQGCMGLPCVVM
Sequence of HRAS wild-type protein (P01112 whole entry): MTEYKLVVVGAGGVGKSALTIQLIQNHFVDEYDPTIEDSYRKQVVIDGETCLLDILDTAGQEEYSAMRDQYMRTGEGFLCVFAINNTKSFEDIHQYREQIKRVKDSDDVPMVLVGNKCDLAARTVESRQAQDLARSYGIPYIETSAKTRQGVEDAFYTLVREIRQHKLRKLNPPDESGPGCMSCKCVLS

SMILES | IC50 [2] [nM] | Kd [3] [nM] | NRAS /KRAS [1, 5] | HRAS /KRAS [4, 6] | NRAS /KRAS [1, 7] | HRAS /KRAS [4, 8]
CC[C@H](C)[C@@H]1NC(=O)[C@H](CC2CC2)N(C)C(=O)C[C@@H](C(=O)N(C)C)N(C)C(=O)[C@H](C2CCCC2)N(C)C(=O)C2(CCC2)NC(=O)[C@@H]2C[C@H](C)CN2C(=O)[C@H](CCc2ccc(C(F)(F)F)c(OC)c2)NC(=O)CN(C)C(=O)[C@H](Cc2ccc(C)cc2)N2CC/C=C\C[C@@H](C2=O)N(C)C(=O)CN(C)C1=O [PP1861] | 25.7 | 0.091 | A (a compound having 10 or more and less than 20 is denoted as A) | B (a compound having 3 or more and less than 10 is denoted as B) | – | –
CCC[C@H]1C(=O)N[C@@H]([C@@H](C)CC)C(=O)N(C)CC(=O)N(C)[C@H]2C/C=C\CCN(C2=O)[C@@H](Cc2ccc(C)cc2)C(=O)N(C)CC(=O)N[C@@H](CCc2cc(F)c(C(F)(F)F)c(F)c2)C(=O)N2C[C@H](C)C[C@H]2C(=O)NC2(CCC2)C(=O)N(C)[C@@H](C2CCCC2)C(=O)N(C)[C@H](C(=O)N(C)CC)CC(=O)N1C [PP1862] | 22.2 | 0.12 | A (a compound having 10 or more and less than 20 is denoted as A) | A (a compound having 10 or more and less than 20 is denoted as A) | – | –
CC[C@H](C)[C@@H]1NC(=O)[C@H](CC(C)C)N(C)C(=O)C[C@@H](C(=O)N(C)C)N(C)C(=O)[C@H](C2CCCC2)N(C)C(=O)C2(CCC2)NC(=O)[C@@H]2C[C@H](C)CN2C(=O)[C@H](CCc2ccc(C(F)(F)F)c(OC)c2)NC(=O)CN(C)C(=O)[C@H](Cc2ccc(C)cc2)N2CC/C=C\C[C@@H](C2=O)N(C)C(=O)CN(C)C1=O [PP1865] | 36 | 0.083 | A (a compound having 10 or more and less than 20 is denoted as A) | B (a compound having 3 or more and less than 10 is denoted as B) | – | –
CCO[C@@H]1C[C@H]2C(=O)NC3(CCC3)C(=O)N(C)[C@@H](C3CCCC3)C(=O)N(C)[C@H](C(=O)N(CC)CC)CC(=O)N(C)[C@@H](CC(C)C)C(=O)N[C@@H]([C@@H](C)CC)C(=O)N(C)CC(=O)N(C)[C@H]3C/C=C\CCN(C3=O)[C@@H](Cc3ccc(C)cc3)C(=O)N(C)CC(=O)N[C@@H](CCc3ccc(C(F)(F)F)c(OC)c3)C(=O)N2C1 [PP1887] | 19.2 | 0.3 | A (a compound having 10 or more and less than 20 is denoted as A) | B (a compound having 3 or more and less than 10 is denoted as B) | – | –
CCC[C@H]1C(=O)N[C@@H]([C@@H](C)CC)C(=O)N(C)CC(=O)N(C)[C@H]2C/C=C\CCN(C2=O)[C@@H](Cc2ccc(C)cc2)C(=O)N(C)CC(=O)N[C@@H](CCc2ccc(C(F)(F)F)c(OC)c2)C(=O)N2C[C@@H](C)C[C@H]2C(=O)NC2(CC(C)(C)C2)C(=O)N(C)[C@@H](C2CCCC2)C(=O)N(C)[C@H](C(=O)N(C)C)CC(=O)N1C [PP1888] | 3.5 | 0.074 | A (a compound having 10 or more and less than 20 is denoted as A) | B (a compound having 3 or more and less than 10 is denoted as B) | – | –

More lines, main results first:

IC50 [2] [nM] | Kd [3] [nM] | SMILES | NRAS /KRAS [1, 5] | HRAS /KRAS [4, 6] | NRAS /KRAS [1, 7] | HRAS /KRAS [4, 8]
3.6 | 0.15 | CCC[C@H]1C(=O)N[C@@H]([C@@H](C)CC)C(=O)N(C)CC(=O)N(C)[C@H]2C/C=C\CCN(C2=O)[C@@H](Cc2ccc(C)cc2)C(=O)N(C)CC(=O)N[C@@H](CCc2ccc(C(F)(F)F)c(OC)c2)C(=O)N2C[C@H](C)C[C@H]2C(=O)NC2(CC(C)(C)C2)C(=O)N(C)[C@@H](C2CCCC2)C(=O)N(C)[C@H](C(=O)N(C)C)CC(=O)N1C [PP1890] | A (a compound having 10 or more and less than 20 is denoted as A) | B (a compound having 3 or more and less than 10 is denoted as B) | – | –
15.9 | 0.2 | CCC[C@H]1C(=O)N[C@@H]([C@@H](C)CC)C(=O)N(C)CC(=O)N(C)[C@H]2C/C=C\CCN(C2=O)[C@@H](Cc2ccc(C)cc2)C(=O)N(C)CC(=O)N[C@@H](CCc2ccc(C(F)(F)F)c(Cl)c2)C(=O)N2C[C@H](C)C[C@H]2C(=O)NC2(CC(C)(C)C2)C(=O)N(C)[C@@H](C2CCCC2)C(=O)N(C)[C@H](C(=O)N(C)CC)CC(=O)N1C [PP1894] | A (a compound having 10 or more and less than 20 is denoted as A) | A (a compound having 10 or more and less than 20 is denoted as A) | – | –
15.1 | 0.12 | CC[C@H](C)[C@@H]1NC(=O)[C@H](CC2CC2)N(C)C(=O)C[C@@H](C(=O)N(C)CC)N(C)C(=O)[C@H](C2CCCC2)N(C)C(=O)C2(CC(C)(C)C2)NC(=O)[C@@H]2C[C@H](C)CN2C(=O)[C@H](CCc2ccc(C(F)(F)F)c(OC)c2)NC(=O)CN(C)C(=O)[C@H](Cc2ccc(C)cc2)N2CC/C=C\C[C@@H](C2=O)N(C)C(=O)CN(C)C1=O [PP1899] | – | – | A (a compound having 10 or more and less than 20 is denoted as A) | B (a compound having 3 or more and less than 10 is denoted as B)
7.6 | 0.098 | CC[C@H](C)[C@@H]1NC(=O)[C@H](CC2CC2)N(C)C(=O)C[C@@H](C(=O)N(C)C)N(C)C(=O)[C@H](C2CCCC2)N(C)C(=O)C2(CC(C)(C)C2)NC(=O)[C@@H]2C[C@@H](C)CN2C(=O)[C@H](CCc2ccc(C(F)(F)F)c(OC)c2)NC(=O)CN(C)C(=O)[C@H](Cc2ccc(C)cc2)N2CC/C=C\C[C@@H](C2=O)N(C)C(=O)CN(C)C1=O [PP1901] | – | – | A (a compound having 10 or more and less than 20 is denoted as A) | B (a compound having 3 or more and less than 10 is denoted as B)
12.5 | 0.2 | CC[C@H](C)[C@@H]1NC(=O)[C@H](CC2CC2)N(C)C(=O)C[C@@H](C(=O)N(C)CC)N(C)C(=O)[C@H](C2CCCC2)N(C)C(=O)C2(CC(C)(C)C2)NC(=O)[C@@H]2C[C@@H](C)CN2C(=O)[C@H](CCc2ccc(C(F)(F)F)c(OC)c2)NC(=O)CN(C)C(=O)[C@H](Cc2ccc(C)cc2)N2CC/C=C\C[C@@H](C2=O)N(C)C(=O)CN(C)C1=O [PP1902] | – | – | A (a compound having 10 or more and less than 20 is denoted as A) | A (a compound having 10 or more and less than 20 is denoted as A)
5.5 | 0.063 | CCO[C@@H]1C[C@H]2C(=O)NC3(CC(C)(C)C3)C(=O)N(C)[C@@H](C3CCCC3)C(=O)N(C)[C@H](C(=O)N(C)C)CC(=O)N(C)[C@@H](CC3CC3)C(=O)N[C@@H]([C@@H](C)CC)C(=O)N(C)CC(=O)N(C)[C@H]3C/C=C\CCN(C3=O)[C@@H](Cc3ccc(C)cc3)C(=O)N(C)CC(=O)N[C@@H](CCc3ccc(C(F)(F)F)c(OC)c3)C(=O)N2C1 [PP1903] | – | – | A (a compound having 10 or more and less than 20 is denoted as A) | B (a compound having 3 or more and less than 10 is denoted as B)
6.8 | 0.31 | CCO[C@@H]1C[C@H]2C(=O)NC(C)(C)C(=O)N(C)[C@@H](C3CCCC3)C(=O)N(C)[C@H](C(=O)N(C)CC)CC(=O)N(C)[C@@H](CC(C)C)C(=O)N[C@@H]([C@@H](C)CC)C(=O)N(C)CC(=O)N(C)[C@H]3C/C=C\CCN(C3=O)[C@@H](Cc3ccc(C(F)(F)F)cc3)C(=O)N(C)CC(=O)N[C@@H](CCc3cc(F)c(C(F)(F)F)c(F)c3)C(=O)N2C1 [PP1937] | – | – | A (a compound having 10 or more and less than 20 is denoted as A) | A (a compound having 10 or more and less than 20 is denoted as A)
